These results are taken from the supplement of paper PMC10307832.

Common to all, as to assay: relative viability (nuclei count vs DMSO), 5 days (fraction); higher = more cells survive
Compound in test [1]: C1/C(=C\C2=CC=CS2)/C(=O)/C(=C/C3=CC=CS3)/C1 + C[C@@H](Oc1cc(-c2cnn(C3CCNCC3)c2)cnc1N)c1c(Cl)ccc(F)c1Cl [Crizotinib] (partner 1 µM)
In outline:
(§1)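 Nuclei were stained with Hoechst during a one-step fixation (final 0.05% Triton X-100, 1% formaldehyde, 1 ug/ml Hoechst) carried out 5 days after dosing, then counted on 4× images. The cells, lung cancer lines in 1536-well plates, had been dosed by pin tool the day after seeding with one drug alone or a fixed anchor-drug dose plus five library-drug doses (not always all listed) in √10 steps. Relative viability is the nuclei count in treated wells divided by that in vehicle wells, and each value is the median of duplicate plates.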

Compound in the test “TPCA-1 + Olaparib”: C1=CC(=CC=C1C2=CC(=C(S2)NC(=O)N)C(=O)N)F [TPCA-1] + O=C(c1cc(Cc2n[nH]c(=O)c3ccccc23)ccc1F)N1CCN(C(=O)C2CC2)CC1 [Olaparib] (partner 8 µM)
In outline: as §1

Compound in test [2]: C1/C(=C\C2=CC=CS2)/C(=O)/C(=C/C3=CC=CS3)/C1 + COc1cc2c(Oc3ccc(NC(=O)C4(C(=O)Nc5ccc(F)cc5)CC4)cc3F)ccnc2cc1OCCCN1CCOCC1 [Foretinib] (partner 0.25 µM)
In outline:
as §1

Compound in the test “Lestaurtinib + OSI-027”: C[C@]12O[C@H](C[C@]1(O)CO)n1c3ccccc3c3c4c(c5c6ccccc6n2c5c31)CNC4=O [Lestaurtinib] + COc1cccc2cc(-c3nc([C@H]4CC[C@H](C(=O)O)CC4)n4ncnc(N)c34)[nH]c12 [OSI-027] (partner 0.5 µM)
In outline:
as §1

As to UMC-11, the relative viability in test [1] (first compound 0.2 µM) is 0.62; in test [1] (first compound 0.6325 µM), 0.685; in test [1] (first compound 2 µM), 0.687; in test [1] (first compound 20 µM) it was 0.571; in the test with TPCA-1 + Olaparib (first compound 0.04 µM), 0.365; with TPCA-1 + Olaparib (first compound 0.1265 µM) it was 0.455. In addition, the relative viability with TPCA-1 + Olaparib (first compound 0.4 µM) was 0.405; with TPCA-1 + Olaparib (first compound 1.265 µM) it was 0.381; in the test with TPCA-1 + Olaparib (first compound 4 µM), 0.42; in test [2] (first compound 0.2 µM), 0.993; in test [2] (first compound 0.6325 µM), 1.12; in test [2] (first compound 20 µM) it was 1.03. For the same cell line, the relative viability in the test with Lestaurtinib + OSI-027 (first compound 0.005 µM) was 0.48; in the test with Lestaurtinib + OSI-027 (first compound 0.01581 µM) it was 0.385; in the test with Lestaurtinib + OSI-027 (first compound 0.05 µM), 0.293; with Lestaurtinib + OSI-027 (first compound 0.1581 µM) it was 0.283; in the test with Lestaurtinib + OSI-027 (first compound 0.5 µM) it was 0.177.
